# Source: US20210260018A1, “COMPOSITION FOR TREATING FIBROTIC DISEASES, […] THI[…] AS ACTIVE INGREDIENT” (Cellion Biomed Inc., priority 2018, published 2021)
# Columns and labels:
# fibroblasts = experiment: MTT cell proliferation in fibroblasts exposed to TGFβ or PDGF; assay type: cell-based; conditions: for TGFβ or PDGF-induced cell proliferation: fibroblasts, TGFβ (5 ng/ml) or PDGF (20 ng/ml), 24 hours
# Experimental: (§1) Fibroblasts (CRL-2795; American Type Culture Collection, VA) were cultured in a Dulbecco's Modified Eagle Medium (Hyclone, Logan, Utah), human uterine microvascular endothelial cells (PromoCell GmbH, Heidelberg, Germany) were cultured in an MV2 medium (PromoCell GmbH), and human hepatic stellate cells (Innoprot, Bizkia, Spain) were cultured in a P60126 medium (Innoprot).
# (§2) All cells were maintained under a 5% humidified carbon dioxide condition at 37° C. The cultured cells were exposed to each of PDGF, TGFβ, and the compounds of Formulas A1 to A9 (CBM-N1 N9) for 24 hours, followed by performing experiments.
# Cells were seeded in 96-well plates at 2×10^4 cells/well, and then exposed to TGFB, which promotes cell proliferation, for 24 hours. In addition, 0.1 mg of MTT was added to each well, followed by exposure for 4 hours at 37° C. Afterward, the culture medium was removed, the cells were lysed with dimethyl sulfoxide, and then absorbance was measured at 590 nm using the following devices.
# KCa2.3 channel [1] = experiment: KCa2.3 channel protein expression in fibroblasts (western blotting); assay type: cell-based
# Experimental: as §1, §2
# (§3) Cells were lysed with a protein extraction buffer solution, a protein concentration in a supernatant was determined by Bradford analysis, and […] of the protein was loaded on an SDS-PAGE gel and then transferred to a nitrocellulose membrane. The nitrocellulose membrane was blocked with 5% BSA-containing TEST (10 mM Tris-HCl, 150 mM NaCl, and 0.1% (v/v) Tween-20, pH 7.6) at room temperature for 1 hour. Blots were incubated overnight with primary antibodies, and then incubated with horseradish peroxidase-conjugated secondary antibodies for 1 hour. Bands were visualized by chemiluminescence. Data collection and processing were performed using an image analyzer (LAS-3000) and IMAGE GAUSE software (Fuji film, Japan).
# [2] = test system: TAA-induced liver disease mouse models; experiment: TAA-induced liver disease mouse model; assay type: in vivo; conditions: TAA mice; for ALT levels / AST blood levels: blood, mean±S.E.M
# Experimental: (§4) To confirm the effects of the compounds of Formula A1 to A5 (CBM-N1˜N5) according to the present invention on liver inflammation and fibrosis, subsequent experiments were performed on […] wild-type mouse (purchased from Orient Bio). First, to induce liver disease in mice, thioacetamide (TAA) were administered to the mice (Experiment A), or the mice were raised on a western diet inducing fatty liver disease (Experiment B). The mice were divided into a normal control, a disease-induced group, and a drug-administered group, and among these three groups, […] were used in each group for Experiment A, and 10 mice were used in each group for Experiment B. A drug treatment method for the mice in each group is as follows:
# (§5) (1) Normal control: The normal control in Experiment A was intraperitoneally injected three times a week with the same amount of TAA solvent used when TAA was injected into a disease-induced group, and the normal control in Experiment B was raised on a normal diet. In both of the Experiments A and B, a CM/1-N1 solvent was injected using an oral tube at the same amount as that of CBM-N1 injection five times a week. The TAA solvent was distilled water, the CBM-N1 solvent and a derivative thereof were a 1:1 mixture of DMSO and distilled water. In the accompanying drawings, C or Control refers to a normal control.
# (2) Disease-induced group: The disease-induced group in the Experiment A was intraperitoneally injected with TAA at 100 mg/kg three times a week, the disease-induced group in the Experiment B was raised on a western diet (WD, 45% saturated fat, […], and water containing fructose and glucose). All CBM-N1 solvents in the Experiments A and B were administered using an oral tube at the same amount as that of CBM-N1 administration five times a week. In the accompanying drawings, TAA refers to a group in which a disease is induced by TAA, and \VD refers to a group in which a disease is induced by a western diet.
# (3) Drug-administered group: In the Experiment A, the compounds of Formulas 1 to 5 (50 mg/kg/day, 5 times/week e administered with TAA (100 mg/kg, 3 times/week), and in the Experiment B, CBM-N1 to N5 (50 mg/kg/day, 5 times/week) were administered with a western diet. The mice treated by the above-described method for 16 weeks were instantly killed by excessively administering an anesthetic, and then the livers and blood were extracted. In the accompanying drawings, TAA+CBM-Ni, TAA+CBM-N2, TAA+CBM-N3, TAA+CBM-N4 and TAA+CBM-N5 refer to disease-induced groups to which the compounds of Formulas A1 to A5 were administered, respectively.
# (§6) To histologically confirm the therapeutic effect of the compound of Formula A1 (CBM-N1) or the compound of Formula A9 (CBM-N9) in each mouse model, a paraffin tissue sample was prepared. Liver and lung tissues were fixed with a paraformaldehyde solution, and sliced to a thickness of 1 to 2 mm. The sectioned tissues were embedded in paraffin, sliced to a thickness of 4 μm to remove paraffin with xylene, and the xylene was removed with ethanol, followed by washing with tap water. The resulting tissues were subjected to hematoxylin and eosin staining (H&E staining) or immunohistochemistry.
# (1) H&E staining: Nuclei were first stained (blue) with a Harris hematoxylin staining solution for 5 minutes, and counter-stained (pink) with an eosin solution.
# (2) Immunohistochemistry for inflammation markers: Inflammation markers (CD82 and CD45) were stained with specific antibodies, and lymphoid cells were stained brown.
# (3) Immunohistochemistry for fibrosis markers: Collagen was stained by Masson's trichrome staining, or reticulin fibers were stained by reticulin staining.
# Aspartic acid aminotransferase (AST, GOT) and alanine aminotransferase (ALT, GPT), total bilirubin and albumin concentrations were measured using blood collected from liver disease mouse models. […]
# KCa2.3 channel [3] = experiment: KCa2.3 channel protein expression in hepatic stellate cells (western blotting); assay type: cell-based, human; conditions: exposure for 24 hours
# Experimental: as §1, §2, §3
# KCa2.3 channel [4] = experiment: KCa2.3 channel expression in vascular endothelial cells (real-time PCR, western blotting); assay type: cell-based, human
# Experimental: as §1, §2
# The mRNA expression levels of inflammation or fibrosis factors in extracted liver tissue were measured by real-time PCR. RNA of the liver tissue was isolated with a TRIzol reagent (Molecular Research Center, Cincinnati, Ohio), and single-stranded cDNA was synthesized using BcaBEST polymerase (TakaraShuzo), followed by a polymerase chain reaction.
# Cells were lysed with a protein extraction buffer solution, a protein concentration in a supernatant was determined by Bradford analysis, and […] of the protein was loaded on an SDS-PAGE gel and then transferred to a nitrocellulose membrane. The nitrocellulose membrane was blocked with 5% BSA-containing TEST (10 mM Tris-HCl, 150 mM NaCl, and 0.1% (v/v) Tween-20, pH 7.6) at room temperature for 1 hour. […]
# [5] = test system: fibrosis markers (α-SMA, collagen 1α, collagen 3α) in fibroblasts; experiment: Expression of fibrosis markers in fibroblasts exposed to TGFβ (western blotting); assay type: cell-based; conditions: fibroblasts exposed to TGFβ (5 ng/ml) + compound for 24 hours
# Experimental: as §1, §2, §3
# [6] = test system: western diet-induced liver disease mouse models; experiment: Western diet-induced liver disease mouse model; assay type: in vivo; conditions: western diet mice
# Experimental: as §4, §5
# (2) Disease-induced group: The disease-induced group in the Experiment A was intraperitoneally injected with TAA at 100 mg/kg three times a week, the disease-induced group in the Experiment B was raised on a western diet (WD, 45% saturated fat, […], and water containing fructose and glucose). […]
# Aspartic acid aminotransferase (AST, GOT) and alanine aminotransferase (ALT, GPT), total bilirubin and albumin concentrations were measured using blood collected from liver disease mouse models.
# The mRNA expression levels of inflammation or fibrosis factors in extracted liver tissue were measured by real-time PCR. […]
# [7] = test system: bleomycin-induced pulmonary fibrosis mouse models; experiment: Bleomycin-induced pulmonary inflammation and fibrosis mouse model; assay type: in vivo; conditions: lung tissue, bleomycin mice
# Experimental: To confirm the effect of the compound of Formula A9 (CBM-N9) on pulmonary inflammation and fibrosis caused by bleomycin, the following experiments were performed on C57BL/6 wild-type mice. First, the mice were divided into a normal control, a disease-induced group, and a drug-administered group, and ten mice were included in each of the three groups. A drug treatment method for the mice in each group is as follows:
# (1) Normal control: The same amount of distilled water as used when the bleomycin was applied in the disease-induced group was instilled intratracheally. In addition, a CBM-N9 solvent was intraperitoneally injected at the same amount used when CBM-N9 was administered to the disease-induced group to be described below five times a week.
# (2) Disease-induced group: 1.5 units of bleomycin was instilled intratracheally. In addition, a CBM-N9 solvent was intraperitoneally injected at the same amount used in CBM-N9 administration five times a week.
# (3) Drug-administered group: 1.5 units of bleomycin was intratracheally instilled. In addition, CBM-N9 (50 mg/kg) was injected intraperitoneally five times a week.
# The mice treated with the drug for 4 weeks in the same manner as described above were instantly killed by excessively administering an anesthetic, and then the lungs were extracted.
# as §6, with “The resulting tissues were subjected to hematoxylin and eosin staining (H&E staining) or immunohistochemistry.” left out
# Cells were lysed with a protein extraction buffer solution, a protein concentration in a supernatant was determined by Bradford analysis, and […] of the protein was loaded on an SDS-PAGE gel and then transferred to a nitrocellulose membrane. […]
# KCa2.3 channel [8] = experiment: KCa2.3 current in hepatic stellate cells (whole-cell patch-clamp); assay type: cell-based, human; conditions: membrane potential of 1-50 mV, exposure for 24 hours
# Experimental: as §1, §2
# A whole cell current through a cell membrane in the isolated and cultured single cells was measured using a patch-clamp technique. […]
# A standard external solution contained 150 mM NaCl, 6 mM KCl, 1.5 mM CaCl2), 1 mM MgCl2, 10 mM HEPES and 10 mM glucose at pH 7.4 (titrated NaOH), and a micro glass electrode (pipette) solution contained 40 mM KCl, 100 mM K-aspartate, 2 mM MgCl2, 0.1 mM EGTA, 4 mM Na2ATP and 10 mM HEPES at pH 7.2 (titrated with KOH). A free Ca^2+ concentration in the pipette solution was adjusted to 1 μM by adding an appropriate amount of Ca^2+ in the presence of 5 mM EGTA (calculated with CaBuf; Droogmans, Leuven, Belgium), […]
# KCa3.1 channel = KCa3.1 channel expression in vascular endothelial cells; assay type: cell-based, human; conditions: PDGF treatment, 24 hours
# Experimental: as §1, §2, §3
# [9] = liver tissue, versus disease-induced group
# [10] = blood, 50 mg/kg/day, 16 weeks, mean±S.E.M
# KCa3.1 channel, sequence (O15554 whole entry): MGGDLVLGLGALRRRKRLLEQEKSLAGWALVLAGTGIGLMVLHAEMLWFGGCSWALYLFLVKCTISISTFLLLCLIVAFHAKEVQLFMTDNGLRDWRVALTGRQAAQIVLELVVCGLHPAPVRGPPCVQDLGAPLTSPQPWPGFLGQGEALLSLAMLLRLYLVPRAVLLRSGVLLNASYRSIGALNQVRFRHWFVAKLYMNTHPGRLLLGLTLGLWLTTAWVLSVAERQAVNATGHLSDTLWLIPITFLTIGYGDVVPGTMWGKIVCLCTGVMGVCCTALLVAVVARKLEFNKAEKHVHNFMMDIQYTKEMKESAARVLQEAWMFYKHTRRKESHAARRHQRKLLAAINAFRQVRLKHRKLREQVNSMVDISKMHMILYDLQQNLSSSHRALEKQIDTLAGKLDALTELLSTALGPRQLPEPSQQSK
Molecule,"ALT levels ([2]; 50 mg/kg/day, 16 weeks)","AST blood levels ([2]; 50 mg/kg/day, 16 weeks)","mRNA level of inflammation factors (inflammatory cytokines TNFα, CCL2, IL12, TGF, IL1α, IL6, MIP-2) [2, 9]",expression of the KCa2.3 channel protein (KCa2.3 channel [3]),also measured
"NC(=O)C[S+]([O-])C(c1ccccc1)c1ccccc1 (stereo not shown) [CBM-N1, 2-(benzhydrylsulfinyl)acetamide]",70.3±14.7 units/L,62.7±11.6 units/L,decreased,reduced in hepatic stellate cells in a concentration-dependent manner,"cell proliferation (fibroblasts; fibroblasts exposed to TGFβ (5 ng/ml) + compound for 24 hours): inhibited; expression level of the KCa2.3 channel protein (KCa2.3 channel [1]): reduced; number of inflammation cells (H&E staining of liver tissue) ([2]; 50 mg/kg/day, 16 weeks, versus disease-induced group): significantly decreased; mRNA expression levels of fibrosis markers (Col1α, Col3α, Col4α, α-SMA, TGFR2) ([2]; liver tissue): decreased; expression of the KCa2.3 channel protein (KCa2.3 channel [4]; vascular endothelial cells with KCa2.3 expression increased with PDGF, treated for 24 hours): significantly decreased; expression levels of the fibrosis markers (α-SMA, collagen 1α, collagen 3α proteins) [5]: reduced; ALT levels [6, 10]: 87.2±24.7 units/L; AST blood levels [6, 10]: 71.4±19.8 units/L; mRNA expression levels of inflammatory cytokines CCL2, IL6 and IL1α [6, 9]: decreased"
"O=C(CSC(c1ccccc1)c1ccccc1)NCC1CCCO1 (stereo not shown) [CBM-N2, 2-(benzhydrylthio)-N-[(tetrahydrofuran-2-yl)methyl]acetamide]",113.4±7.9 units/L,83.6±14.8 units/L,decreased,significantly reduced,
"O=C(CSC(c1ccccc1)c1ccccc1)Nc1ccccc1 [CBM-N3, 2-(benzhydrylthio)-N-phenylacetamide]",103.0±6.9 units/L,73.4±7.4 units/L,decreased,,
"CNC(=O)C[S+]([O-])C(c1ccccc1)c1ccccc1 (stereo not shown) [CBM-N4, 2-(benzhydrylsulfinyl)-N-methylacetamide]",114.1±8.8 units/L,66.6±9.4 units/L,decreased,,
"O=C(C[S+]([O-])C(c1ccccc1)c1ccccc1)NCC1CCCO1 (stereo not shown) [CBM-N5, 2-(benzhydrylsulfinyl)-N-[(tetrahydrofuran-2-yl)methyl]acetamide]",106.4±12.8 units/L,67.7±10.2 units/L,decreased,significantly reduced,
"NC(=O)C[S+]([O-])C(c1cccc(F)c1)c1cccc(F)c1 (stereo not shown) [CBM-N8, 2-[bis(3-fluorophenyl)methanesulfinyl]acetamide]",,,,significantly reduced,TGFβ or PDGF-induced cell proliferation (fibroblasts): significantly reduced
"NC(=O)C[S+]([O-])C(c1ccc(F)cc1)c1ccc(F)cc1 (stereo not shown) [CBM-N9, 2-[bis(4-fluorophenyl)methanesulfinyl]acetamide]",,,,significantly reduced,"TGFβ or PDGF-induced cell proliferation (fibroblasts): significantly reduced; degrees of inflammation and fibrosis (H&E, CD45 immunohistochemistry, Masson's trichrome) ([7]; 50 mg/kg intraperitoneally five times a week, 4 weeks, versus disease-induced group): decreased; protein expression levels of inflammation markers TIMP-2 and CCR2 ([7]; FIG. 13A): greatly decreased; expression of fibrosis marker proteins (printed: protein expression levels of TIMP-2 and, CCR2) ([7]; FIG. 13B): greatly decreased; KCa2.3 current densities versus cells not exposed (KCa2.3 channel [8]): significantly decreased"
PDGF,,,,,expression of the KCa3.1 channel (KCa3.1 channel): did not increase; expression of the mRNA and protein of the KCa2.3 channel (KCa2.3 channel [4]; vascular endothelial cells exposed to PDGF (20 ng/ml) or TGF (5 ng/ml) for 24 hours): increased
